Test system: glycogen synthase
Experiment: Glycogen Synthase (GS) Assay
Type: biochemical
Settings: coupled pyruvate kinase/lactate dehydrogenase assay, absorbance at 340 nm; for EC50: compound concentration needed to give 50% maximum activation; for GS SC200: compound concentration needed to stimulate 200% of the enzyme activity
Experimental: The following tests were carried out in order to determine the activity of the compounds of formula (I).
Twelve μL per well of substrate solution containing glycogen (4.32 mg/ml), 2.67 mM UDP-glucose, 21.6 mM phospho(enol)pyruvate and 2.7 mM NADH in 30 mM glycylglycine, pH 7.3 buffer was added into a polystyrene 384-well assay plate (BD Biosciences).
Compound solutions (8 μL/well) at various concentrations (0-300 μM) were added to the assay plate (columns 5-24). Compound solution contains 30 mM glycylglycine, pH 7.3, 40 mM KCl, 20 mM MgCl2, 9.2% DMSO, with (columns 15-24) or without (columns 5-14) 20 mM glucose 6-phosphate.
Enzyme solution (12 μL/well) containing glycogen synthase (16.88 μg/ml), pyruvate kinase (0.27 mg/ml), lactate dehydrogenase (0.27 mg/ml) in 50 mM Tris-HCl, pH 8.0, 27 mM DTT and bovine serum albumin (BSA, 0.2 mg/ml) was added to the assay plate (columns 3-24). As a blank control, enzyme solution without glycogen synthase was added into the top half wells of columns 1-2. To the bottom half wells of columns 1-2 were added a known activator, glucose 6-phosphate (at final concentration 5 mM) in addition to the enzyme solution. The reaction mixture was incubated at room temperature. The assay plate was then read for absorbance at 340 nm on an Envision reader every 3 minutes up to a total of 15 minutes.
The enzyme activity (with or without compound) was calculated by the reaction rate and represented by the optical density change (δOD) per minute. Percent stimulation of glycogen synthase activity by a compound at various concentrations was calculated by the following formula: […]
Where Rs is the reaction rate of the enzyme in the presence of compound and Rt is the reaction rate of the enzyme in the absence of compound.
SC200 is defined as the compound concentration that is needed to stimulate 200% of the enzyme activity. EC50 is defined as the compound concentration that is needed to give 50% maximum activation.
Compounds from Examples 1 through Example 64 were assayed according to assay procedures described above and the result is listed in Table 1 below: […]

EC50 | SMILES | GS SC200
840 nM | O=C(O)[C@H]1CCS(=O)(=O)N1Cc1cccc(COc2ccc(-c3cc(F)c(F)cc3Cl)cc2)c1 [Example 50, (R)-2-[3-(2′-Chloro-4′,5′-difluoro-biphenyl-4-yloxymethyl)-benzyl]-1,1-dioxo-1lambda*6*-isothiazolidine-3-carboxylic acid] | 0.42 µM
130 nM | O=C(O)C1CCS(=O)(=O)N1Cc1cccc(COc2ccc(-c3cc(F)c(F)cc3F)cc2)c1 (racemic) [Example 38, 1,1-Dioxo-2-[3-(2′,4′,5′-trifluoro-biphenyl-4-yloxymethyl)-benzyl]-1lambda*6*-isothiazolidine-3-carboxylic acid] | 0.05 µM
330 nM | COc1cc(F)c(F)cc1-c1ccc(OCc2cccc(CN3[C@@H](C(=O)O)CCCS3(=O)=O)c2)cc1 [Example 55, (R)-2-[3-(4′,5′-Difluoro-2′-methoxy-biphenyl-4-yloxymethyl)-benzyl]-1,1-dioxo-1lambda*6*-[1,2]thiazinane-3-carboxylic acid] | 0.16 µM
1170 nM | COc1cc(F)c(F)cc1-c1ccc(OCc2nc(CN3[C@@H](C(=O)O)CCS3(=O)=O)cs2)cc1 [Example 61, (R)-2-[2-(4′,5′-Difluoro-2′-methoxy-biphenyl-4-yloxymethyl)-thiazol-4-ylmethyl]-1,1-dioxo-1lambda*6*-isothiazolidine-3-carboxylic acid] | 0.78 µM
120 nM | COc1cc(F)c(F)cc1-c1ccc(OCc2cccc(CN3[C@H](C(=O)O)CCS3(=O)=O)c2)cc1 [Example 45, (S)-2-[3-(4′,5′-Difluoro-2′-methoxy-biphenyl-4-yloxymethyl)-benzyl]-1,1-dioxo-1lambda*6*-isothiazolidine-3-carboxylic acid] | 0.02 µM
550 nM | COc1cc(F)c(F)cc1-c1ccc(OCc2cncc(CN3C(C(=O)O)CCS3(=O)=O)c2)cc1 (stereo not shown) [Example 63, 2-[5-(4′,5′-Difluoro-2′-methoxy-biphenyl-4-yloxymethyl)-pyridin-3-ylmethyl]-1,1-dioxo-1lambda*6*-isothiazolidine-3-carboxylic acid] | 0.01 µM
110 nM | COc1cc(F)c(F)cc1-c1ccc(OCc2cccc(CN3[C@H](C(=O)O)CCCS3(=O)=O)c2)cc1 [Example 56, (S)-2-[3-(4′,5′-Difluoro-2′-methoxy-biphenyl-4-yloxymethyl)-benzyl]-1,1-dioxo-1lambda*6*-[1,2]thiazinane-3-carboxylic acid] | 0.04 µM
110 nM | Cc1cc(F)c(F)cc1-c1ccc(OCc2cccc(CN3[C@H](C(=O)O)CCS3(=O)=O)c2)cc1 [Example 48, (S)-2-[3-(4′,5′-Difluoro-2′-methyl-biphenyl-4-yloxymethyl)-benzyl]-1,1-dioxo-1lambda*6*-isothiazolidine-3-carboxylic acid] | 0.01 µM
2190 nM | O=C(O)[C@@H]1CCS(=O)(=O)N1Cc1csc(COc2ccc(-c3cc(F)c(F)cc3F)cc2)n1 [Example 60, (S)-1,1-Dioxo-2-[2-(2′,4′,5′-trifluoro-biphenyl-4-yloxymethyl)-thiazol-4-ylmethyl]-1lambda*6*-isothiazolidine-3-carboxylic acid] | 1.74 µM
4900 nM | COc1cc(F)c(F)cc1-c1ccc(OCc2cccc(CNCC(=O)O)c2)cc1.Cl [Example 37, [3-(4′,5′-Difluoro-2′-methoxy-biphenyl-4-yloxymethyl)-benzylamino]-acetic acid] | 0.38 µM
3710 nM | O=C(O)C(F)(F)F.O=C(O)[C@@H]1CCCN1Cc1cccc(COc2ccc(-c3ccc(F)cc3F)cc2)c1 [Example 54, (S)-1-[3-(2′,4′-Difluoro-biphenyl-4-yloxymethyl)-benzyl]-pyrrolidine-2-carboxylic acid; trifluoro-acetic acid salt] | 0.90 µM
380 nM | COc1cc(F)c(F)cc1-c1ccc(OCc2cccc(CN3[C@@H](C(=O)O)CCS3(=O)=O)c2)cc1 [Example 44, (R)-2-[3-(4′,5′-Difluoro-2′-methoxy-biphenyl-4-yloxymethyl)-benzyl]-1,1-dioxo-1lambda*6*-isothiazolidine-3-carboxylic acid] | 0.09 µM

More lines, now with the values behind:

SMILES | EC50 | GS SC200
COc1cc(F)c(F)cc1-c1ccc(OCc2cccc(CN(CC(=O)O)C(C)=O)c2)cc1 [Example 21, {Acetyl-[3-(4′,5′-difluoro-2′-methoxy-biphenyl-4-yloxymethyl)-benzyl]-amino}-acetic acid] | 430 nM | 0.16 µM
COc1cc(F)c(F)cc1-c1ccc(OCc2cccc(CN(CC(=O)O)C(=O)c3cscn3)c2)cc1 [Example 27, [[3-(4′,5′-Difluoro-2′-methoxy-biphenyl-4-yloxymethyl)-benzyl]-(thiazole-4-carbonyl)-amino]-acetic acid] | 520 nM | 0.08 µM
COc1cc(F)c(F)cc1-c1ccc(OCc2cccc(CN(CC(=O)O)C(=O)CC(C)C)c2)cc1 [Example 2, [[3-(4′,5′-Difluoro-2′-methoxy-biphenyl-4-yloxymethyl)-benzyl]-(3-methyl-butyryl)-amino]-acetic acid] | 1080 nM | 0.13 µM
COCCC(=O)N(CC(=O)O)Cc1cccc(COc2ccc(-c3cc(F)c(F)cc3OC)cc2)c1 [Example 26, [[3-(4′,5′-Difluoro-2′-methoxy-biphenyl-4-yloxymethyl)-benzyl]-(3-methoxy-propionyl)-amino]-acetic acid] | 450 nM | 0.05 µM
COc1cc(F)c(F)cc1-c1ccc(OCc2cccc(CN(CC(=O)O)C(=O)[C@H]3CCCO3)c2)cc1 [Example 33, [[3-(4′,5′-Difluoro-2′-methoxy-biphenyl-4-yloxymethyl)-benzyl]-((R)-tetrahydro-furan-2-carbonyl)-amino]-acetic acid] | 350 nM | 0.02 µM
CCS(=O)(=O)N(CC(=O)O)Cc1cccc(COc2ccc(-c3cc(F)c(F)cc3F)cc2)c1 [Example 18, {Ethanesulfonyl-[3-(2′,4′,5′-trifluoro-biphenyl-4-yloxymethyl)-benzyl]-amino}-acetic acid] | 160 nM | 0.07 µM
CCC(=O)N(CC(=O)O)Cc1cccc(COc2ccc(-c3cc(F)c(F)cc3OC)cc2)c1 [Example 23, {[3-(4′,5′-Difluoro-2′-methoxy-biphenyl-4-yloxymethyl)-benzyl]-propionyl-amino}-acetic acid] | 370 nM | 0.10 µM
COc1cc(F)c(F)cc1-c1ccc(OCc2cccc(CN(CC(=O)O)C(=O)C3CCC3)c2)cc1 [Example 4, {Cyclobutanecarbonyl-[3-(4′,5′-difluoro-2′-methoxy-biphenyl-4-yloxymethyl)-benzyl]-amino}-acetic acid] | 720 nM | 0.18 µM
COc1cc(F)c(F)cc1-c1ccc(OCc2cccc(CN(CC(=O)O)C(=O)c3cccnc3)c2)cc1 [Example 30, [[3-(4′,5′-difluoro-2′-methoxy-biphenyl-4-yloxymethyl)-benzyl]-(pyridine-3-carbonyl)-amino]-acetic acid] | 470 nM | 0.04 µM
COCC(C)C(=O)N(CC(=O)O)Cc1cccc(COc2ccc(-c3cc(F)c(F)cc3OC)cc2)c1 (stereo not shown) [Example 31] | 480 nM | 0.07 µM
COc1cc(F)c(F)cc1-c1ccc(OCc2cccc(CN(CC(=O)O)C(=O)CC3CC3)c2)cc1 [Example 24, {(2-Cyclopropyl-acetyl)-[3-(4′,5′-difluoro-2′-methoxy-biphenyl-4-yloxymethyl)-benzyl]-amino}-acetic acid] | 730 nM | 0.12 µM
CC(C)(C)C(=O)N(CC(=O)O)Cc1cccc(COc2ccc(-c3ccc(F)cc3F)cc2)c1 [Example 11, [[3-(2′,4′-Difluoro-biphenyl-4-yloxymethyl)-benzyl]-(2,2-dimethyl-propionyl)-amino]-acetic acid] | 3670 nM | 0.97 µM
O=C(O)CN(Cc1cccc(COc2ccc(-c3ccc(F)cc3F)cc2)c1)C(=O)c1ccccn1 [Example 16, [[3-(2′,4′-Difluoro-biphenyl-4-yloxymethyl)-benzyl]-(pyridine-2-carbonyl)-amino]-acetic acid] | 1540 nM | 0.43 µM
O=C(O)CN(Cc1cccc(COc2ccc(-c3ccc(F)cc3F)cc2)c1)C(=O)C1CC1 [Example 12, {Cyclopropanecarbonyl-[3-(2′,4′-difluoro-biphenyl-4-yloxymethyl)-benzyl]-amino}-acetic acid] | 4310 nM | 0.75 µM
